# Test results: patent US5242945A, “Tetronic and thiotetronic acid derivatives as phospholipase A2 inhibitors” (American Home Products Corporation, priority 1991, dated 1993)
# Read-outs that look alike come from different tables or passages of the source.
# What was measured:
# [1] = test system: lipoxygenase (LTB4 or 5HETE synthesis); assay: inhibition of LTB4 and 5-HETE synthesis by rat glycogen-elicited polymorphonuclear leukocytes; type: cell-based, rat (female Wistar); conditions: Leukocyte, rat PMN; for inhibition at 10 µM: + with * denotes potentiation
# Excerpt: This is especially true with respect to 5,12-diHETE, which is also denoted as LTB4 [see Ford-Hitchinson, J. Roy. Soc. Med., 74, 831 (1981)]. Compounds which inhibit the PLA2 -mediated release of arachidonic acid thereby effectively prevent the oxidation of arachidonic acid to the various leukotriene products via the lipoxygenase cascade. Accordingly, the specificity of action of PLA2 inhibitors can be determined by the activity of test compounds in this assay, which measures the ability of compounds to inhibit the synthesis of LTB4 and 5-HETE by rat glycogen-elicited polymorphonuclear leukocytes (PMN) in the presence of exogenous substrate.
# (§1) Rat polymorphonuclear leukocytes (PMNs) are obtained from female Wistar rats (150-200 g) which receive an injection of 6% glycogen (10 ml i.p.). Rats are sacrificed 18-24 hours post injection by CO2 asphyxiation and the elicited cells are harvested by peritoneal lavage using physiological saline (0.9% NaCl). The exudate is centrifuged at 400 xg for 10 minutes. The supernatant fluid is discarded and the cell pellet is resuspended to a concentration of 2.0×10^7 cells/mL in HBSS containing Ca^++ and Mg^++ and 10 μM L-cysteine.
# (§2) To 1 mL aliquots of cell suspension, test drugs or vehicle are added, then preincubated at 37° C. for 10 minutes. A23187 (1 μM), [^3 H]-AA (3.0 μCi/mL) and unlabeled AA (1 μM) are then added and the samples are further incubated for 10 minutes. The reaction is terminated by centrifugation and pelleting cells. Supernatants are then analyzed by HPLC analysis on a 15 cm×4.6 mm ID supelcosil LC-18 (Supelco)(3M) column, using a two solvent system at a flow rate of 1.4 mL total flow as follows:
# Injections: 140 μL of each supernatant is injected directly onto column and ^3 H arachidonic acid metabolites are monitored using an on-line radioactivity detector (Ramona, IN/US, Fairfield, N.J.).
# Co-chromatography with standard [^3 H] leukotriene B4 (LTB4) in medium of stimulated PMN exposed to drug is compared to that found in medium of stimulated cells exposed to no drug, generating percent inhibition.
# Results are expressed as percent inhibition at a given compound dose or as an IC50 value.
# [2] = test system: purified PLA2, from the diamond back cotton mouth snake (A. piscivorus piscivorus); assay: in vivo PLA2 murine paw edema assay; parameters: species or system A. piscivorus piscivorus PLA2 in CD-1 mice
# Protocol: The ability of the compounds of the invention to inhibit paw edema induced by the exogenous administration of PLA2 is measured in the in vivo PLA2 murine paw edema assay.
# Non-fasted, male CD-1 mice (8 weeks old; 31-36 grams) are placed in plastic boxes in groups of six. The right hind paw volume is measured using mercury plethysmography (zero time). Compounds are dosed orally (0.5 mL of 0.5% Tween-80) 1 or 3 hours prior to PLA2 injection or intravenously (0.2 mL in 0.3% dimethylsulfoxide/saline) 3 minutes prior to PLA2 injection. A solution of purified PLA2, from the diamond back cotton mouth snake (A. piscivorus piscivorus) is prepared in saline at a concentration of 6 μg/mL. Fifty (50) μL (0.3 μg) of this PLA2 solution is injected subcutaneously into the right hind paw with a plastic 1 mL plastic syringe (27 gauge, 1" needle). Paw volume of the injected paw is measured again at 10 minutes, 30 minutes and 60 minutes after PLA2 injection. Animals are euthanized with CO2 at the completion of the study.
# The paw edema is calculated by subtracting the zero time volume from the volume recorded at each time period. Mean paw edema for each treatment group is then calculated and expressed as (μL±S.E.). Drug effects are expressed as a percent change from control (vehicle) values. Statistical significance is determined by a one-way analysis of variance with LSD comparison to control (p<0.05). ED50 's are determined using […].
# carrageenan paw edema = assay: rat carrageenan paw edema assay; type: in vivo, rat (Sprague-Dawley)
# Protocol: The compounds of the invention are further tested in the rat carrageenan paw edema assay to determine their ability to inhibit the acute inflammatory response.
# 140-180 g Male Sprague-Dawley rats, in groups of 6 animals are injected subcutaneously in the right paw with 0.1 mL of 1% carrageenan at zero time. Mercury plethysmographic readings (mL) of the paw are made at zero time and 3 hours later. Test compounds are suspended or dissolved in 0.5% methylcellulose and given perorally 1 hour prior to carrageenan administration.
# The increase in paw volume (edema in mL) produced by the carrageenan is measured. Paw edema is calculated (3 hour volume minus zero time volume), and percent inhibition of edema is determined. Unpaired Student's t-test is used to determine statistical significance.
# [3] = test system: cyclooxygenase (PGE2 or TxB2 synthesis); assay: inhibition of synthesis of cyclooxygenase products PGE2 and TxB2 by rat polymorphonuclear leukocytes; type: cell-based, rat (female Wistar); conditions: Leukocyte, rat PMN; for inhibition at 10 µM: + with * denotes potentiation
# Protocol: as §1, §2
# In this assay, the procedure of Example 58 is carried out as described. However, in order to determine cyclooxygenase activity, the samples are co-chromatographed with authentic reference [^3 H]-TxB2 or [^3 H]-PGE2.
# The results are calculated as in Example 58 and presented below: […]
# [4] = test system: purified PLA2, from the diamond back cotton mouth snake (A. piscivorus piscivorus); assay: in vivo PLA2 murine paw edema assay; parameters: species or system A. piscivorus piscivorus PLA2 in CD-1 mice; remark: listed apart in the source
Compound,% Change in Edema 10 min ([2]; 10 mg/kg i.v.),% Change in Edema 30 min ([2]; 10 mg/kg i.v.),% Change in Edema 60 min ([2]; 10 mg/kg i.v.),% Change in Edema 10 min ([2]; 100 mg/kg p.o.),% Change in Edema 30 min ([2]; 100 mg/kg p.o.),% Change in Edema 60 min ([2]; 100 mg/kg p.o.),inhibition at 10 µM ([1]; read-out: % Inhibition LTB4),inhibition at 10 µM ([3]; read-out: % Inhibition TxB2),other results
"CCCCCCCCCC(=O)C1=C(O)COC1=O [Example 1, 4-Hydroxy-3-(1-oxodecyl)-2(5H)-furanone]",-51%,-43%,-23%,-36%,-29%,-29%,–,–,inhibition at 50 µM ([1]; at 50 μM): 60%; % Inhibition (carrageenan paw edema; 50 mg/kg peroral): 40%; inhibition at 50 µM ([3]; at 50 μM): 71%
"CCCCCCCC/C=C\CCCCCCCC(=O)C1=C(O)COC1=O [Example 9, (Z)-4-Hydroxy-3-(1-oxo-9-octadecenyl)-2(5H)-furanone]",-48%,-42%,-48%,-1%,+1.5%,+7.1%,1%,31%,% Inhibition (carrageenan paw edema; 100 mg/kg peroral (dose column)): 41%
"CCCC/C=C\CCCCCCCC(=O)C1=C(O)COC1=O [Example 25, 4-Hydroxy-3-((Z)-1-oxo-9-tetradecenyl)-2(5H)-furanone]",–,–,–,–,–,–,8%,8%,inhibition at 10 µM ([1]; read-out: % Inhibition 5-HETE): 81%; % Change in Edema 10 min ([4]; 1 mg/kg i.p.): -50%; % Change in Edema 30 min ([4]; 1 mg/kg i.p.): -65%; % Change in Edema 60 min ([4]; 1 mg/kg i.p.): -1%; % Change in Edema 10 min ([4]; 10 mg/kg i.p.): -38%; % Change in Edema 30 min ([4]; 10 mg/kg i.p.): -44%; % Change in Edema 60 min ([4]; 10 mg/kg i.p.): -18%; % Change in Edema 10 min ([4]; 200 mg/kg p.o.): -40%; % Change in Edema 30 min ([4]; 200 mg/kg p.o.): -33%; % Change in Edema 60 min ([4]; 200 mg/kg p.o.): -43%; inhibition at 10 µM ([3]; read-out: % Inhibition PGE2): 68%
